Two compounds from ChEMBL document CHEMBL1221189, “Structural basis for macrolactonization by the pikromycin thioesterase” (Nat Chem Biol, 2006) can be followed below.

Active and inactive are the calls of the source. The rule behind the calls is not given here.

Test [1] deals with Streptomyces venezuelae. The test is described as follows: Inactivation of pikromycin thioesterase in Streptomyces venezuelae assessed as rate of enzymatic hydrolysis of p-nitrophenylpropionate at 2 mM after 50 mins.
For test [2], the system named is Streptomyces venezuelae. In words: Inactivation of pikromycin thioesterase in Streptomyces venezuelae assessed as rate of enzymatic hydrolysis of p-nitrophenylpropionate at 2 mM after 6 hrs.
For test [3], the system named is Streptomyces venezuelae. The test is described as follows: Inactivation of pikromycin thioesterase in Streptomyces venezuelae assessed as rate of enzymatic hydrolysis of p-nitrophenylpropionate at 2 mM. The settings on record: TDE = time-dependent effect.
The test system of test [4] is Streptomyces venezuelae. The test is described as follows: Inactivation of pikromycin thioesterase in Streptomyces venezuelae assessed as rate of enzymatic hydrolysis of p-nitrophenylpropionate after 8 hrs.

In the case of `C[C@@H](CO)C[C@H](C)[C@H](O)[C@@H](C)C(=O)CP(=O)(Oc1ccccc1)Oc1ccccc1`, the fold change (FC) with Streptomyces venezuelae [1] is 2. The result with Streptomyces venezuelae [2] was Active. Also, in the test with Streptomyces venezuelae [3], the Activity entry is “tde”.
As for `CC[C@H](O)[C@@H](C)C(=O)CP(=O)(Oc1ccccc1)Oc1ccccc1`, the result in the test on Streptomyces venezuelae [4] was Active.
